Laboratory results: PMC3689833, “Neurochemical Changes in the Mouse Hippocampus Underlying the Antidepressant Effect of Genetic Deletion of P2X7 Receptors” (PLoS ONE, 2013)

Legend:
acute hippocampal slices = assay: [3H]Glutamate and endogenous glutamate release from acute hippocampal slices; format: cell-based, mouse; conditions: P2rx7−/− slices, ATP 10 mM, antagonist 100 nM 15 min before ATP
Procedure: The [^3H]Glu release experiments were conducted using the method described in our previous papers. Briefly, the mice were anaesthetized under light CO2 inhalation, and subsequently decapitated. The hippocampus was dissected from each mouse in ice-cold Krebs solution saturated with 95% O2 and 5% CO2, sectioned (400-µm-thick slices) using a McIlwain tissue chopper and incubated in 1 ml of modified Krebs solution (113 mM NaCl, 4.7 mM KCl, 2.5 mM CaCl2, 1.2 mM KH2PO4, 1.2 mM MgSO4, 25.0 mM NaHCO3, and 11.5 mM glucose), pH 7.4, in the presence of 5 µCi/ml [^3H]glutamic acid ([^3H]Glu, 9.8×10^−8 M, specific activity 51 Ci/mmol; Perkin Elmer) for 45 min. The medium was bubbled with 95% O2 and 5% CO2 and maintained at 32°C. After loading, the slices were continuously superfused with 95% O2 and 5% CO2-saturated modified Krebs solution (flow rate: 0.7 ml/min).
Subsequently, the perfused samples were collected over a 3-min period and measured for tritium content. At 6 min after the start of the collection, the slices were subjected to a 6-min perfusion of the agonist (ATP) at various concentrations (1, 3, 6 and 10 mM) and then changed to normal Krebs solution until the end of the collection period. In some experiments, the P2X1 receptor antagonist, NF449 (100 nM), or the selective P2rx7 antagonist Brilliant blue G (100 nM) was applied to the perfusion solution at 15 min before the beginning of the ATP perfusion.
The radioactivity released from the preparations was measured using a Packard 1900 Tricarb liquid scintillation spectrometer, using Ultima Gold Scintillation cocktail. The release of tritium was expressed as a percentage of the amount of radioactivity in the tissue at the sample collection time (fractional release). The tritium uptake in the tissue was determined as the sum of release+the tissue content after the experiment and expressed in Bq/g. For the evaluation of the basal tritium outflow the fractional release measured in four consecutive 3 min samples under drug free conditions were taken into account. The ATP-induced [^3H]Glu efflux calculated as the net release in response to the respective stimulus by subtracting the release before the stimulation from the values measured after stimulation. Selected samples collected under resting conditions and during the peak of the ATP-evoked response were subjected to further HPLC analyses.
The separation of pre-column dansylated amino acids was performed using a gradient elution-working mode at ambient temperature. The mobile phase A consisted of 5/95 (v/v) 78/22 acetonitrile/methanol in 15 mM ammonium formate buffer, and the mobile phase B was composed of 90/10 (v/v 78/22) acetonitrile/methanol in ammonium formate buffer, pH 3.7. The mobile phase B increased linearly (at 0.11 min to 50% 17 min to 72% and 26 min to 100%, followed by a final run to 54 min), the flow rate was 0.7 ml/min. The analytical and the trap column were equilibrated for 10 min, and enrichment and clean-up procedures were performed. The dansylated derivatives were detected using an absorbance detector (Agilent 1100) at a 319 nm wavelength. The retention time of the dansylated Glu was 11.4 min. Pre-column derivatization was performed by mixing 50 µl of dansyl chloride prepared by dissolving 5 mg 5-(dimethylamino)naphthalene-1-sulfonyl chloride in acetonitrile daily and adding 50 µl of 2 M sodium carbonate, which contained norvaline (20 µM) as an internal standard in 25 µl of sample. After a 10-min reaction time at 60°C, the mixture was acidified using 25 µl of 6 M formic acid and injected onto the “trap-column”.

P2rx7+/+ mice = assay: Automated tail suspension test (TST), LPS-induced depressive behavior; format: in vivo, mouse; conditions: LPS 1 mg/kg i.p. 24 h before, antagonist 50 mg/kg i.p. 30 min before test
Procedure: All experiments and treatments were performed during the light phase (7.00 AM–7.00 PM). The TST was conducted using an automated tail suspension device (BIO-TST2, Bioseb, France) in accordance with a previously described method. The device consisted of a single tail suspension module with three chambers, connected to a personal computer that recorded the activity of the animals during the test sessions. Three mice were individually suspended by the tail onto the hooks of the device using adhesive tape (distance from tip of tail was 1–2 cm). The measurements were automatically recorded within 5–10 seconds after placing the last animal into the chamber, and each measurement lasted 6 min. […] The threshold level was set at 6. To examine endotoxin-induced depressive behavior, the animals were subjected to bacterial lipopolysaccharide injection (LPS, serotype 055:B5, Sigma, St. Louis, […], USA, 1 mg/kg i.p.) at 24 h before a single 6-min test period. Brilliant blue G (BBG, 50 mg/kg i.p.) or an equal volume of saline was injected at 30 min before the test period. The time of immobility was expressed in sec. The P2rx7+/+ and P2rx7−/− mice were subjected to alternation testing. […] The data of these animals were excluded from the calculations during the post hoc analysis.

[1] = system: P2rx7+/+ and P2rx7−/− mice; assay: Sucrose preference test (SPT), LPS-induced anhedonia; format: in vivo, mouse; conditions: P2rx7+/+ mice, subacute 4-day 50 mg/kg i.p., LPS 0.2 mg/kg i.p.
Procedure: The experiments were performed using the two-bottle sucrose preference paradigm. The decreased preference for sucrose vs. water in this test has been proposed to reflect impaired sensitivity towards reward and to model anhedonia. Mice were offered a choice of 2% sucrose solution or water during 12-hour nocturnal periods (starting at 19∶00). The bottles were weighed before and after each test session to monitor sucrose and water consumption. The relative position of the sucrose and water bottles were swapped every night to avoid place preferences. The baseline sucrose intake was measured under a habituation period of 3–4 days before administering the treatments, and the mean volume ingested over the last 3 training sessions was used as a baseline value. The sucrose consumption was measured for 4 consecutive nights after LPS (0.2 mg/kg i.p.) or saline administration and expressed as g/100 g body weight or as a percentage of the baseline (%).

**Q.** CCOc1ccc(Nc2ccc(/C(=C3C=C/C(=[N+](/CC)Cc4cccc(S(=O)(=O)[O-])c4)C=C/3C)c3ccc(N(CC)Cc4cccc(S(=O)(=O)O)c4)cc3C)cc2)cc1 [BBG, Brilliant blue G] was tested. Which “residual ATP-evoked [3H]Glu efflux in presence of antagonist” value (acute hippocampal slices) did it give?
**A.** 0.56±0.25%

**Q.** What about the “LPS-induced depressive behavior in TST (immobility)” value (P2rx7+/+ mice) of the same compound?
**A.** significantly attenuated

**Q.** What about the “sucrose consumption one day after LPS injection” value [1] of the same compound?
**A.** did not change

**Q.** What about the “sucrose consumption over subsequent days after LPS” value [1] of the same compound?
**A.** significantly increased
